pIC50: −log10 of the molar value.
What was measured:
Kuramochi cells RB-WT = test: IncuCyte Kuramochi cell proliferation assay, RB-WT; type: cell-based; details: 72 hours, cell count
Experimental: IncuCyte® assay was used to measure the effect of disclosed compounds on cell proliferation. Fluorescent microscopy images of cells were taken immediately after compound treatment and 72 hours later. Image analysis software was used to obtain cell counts as a function of compound concentration. Kuramochi cells labeled with mApple-H2B were seeded on 384-well assay-ready plates. Plates were placed in an IncuCyte® (Sartorius) and scanned at 0 and 72 hours. IncuCyte® software was used to count the number of fluorescent nuclei in each well. The fold change in cell count from 0 to 72 hours in wells treated with increasing compounds concentrations (10 pts, 1/2 log dilution, 20 µM top concentration) was normalized to DMSO control wells. The normalized cell counts were fit with dose response curves and a GI50 was calculated.

CDK2/Cyclin E1 = CDK2/Cyclin E1 (Homo sapiens, UniProt P24941); test: ADP-Glo Luminescent Kinase Assay (CDK2/E1-37C); type: biochemical; details: 0.18 nM CDK2/Cyclin E1, 100 μM ATP, Histone H1, 37° C.; read-out: ADPGLO (CDK2/E1-37C): IC50
Experimental: Inhibition of CDK2/Cyclin E1 activity by the presence of small molecules was evaluated using ADP-Glo Luminescent Kinase Assay (Promega). Activated CDK2/Cyclin E1 was incubated with its substrate Histone H1 (SignalChem H10-54N) in the kinase reaction buffer (100 μM ATP, 50 mM HEPES pH 7.5, 10 mM MgCl2, 1 mM EDTA, 2 mM DTT, 0.01% Brij35, 0.5 mg/mL BSA). Luminescence was recorded with an Envision plate reader (PerkinElmer).
Dose titrations of inhibitors in 100% DMSO were combined with 0.36 nM CDK2/Cyclin E1 in reaction buffer. The mixtures were incubated for 60 minutes at 37° C. before the addition of ATP and Histone H1 substrate to initiate the kinase reaction. The final conditions were 0.18 nM CDK2/Cyclin E1, 100 μM ATP, and […] Histone H1. The reactions were incubated at 37° C. for 90 minutes before being stopped with the addition of ADP-Glo reagent. This mixture was incubated at room temperature for 60 minutes before Kinase Detection Solution is added to generate luminescence. The stopped reactions were analyzed on an Envision plate reader. The conversion ratios were normalized to yield % activity, plotted against compound concentration, and fit to a four-parameter equation to determine the IC50 for each compound.

| SMILES | pIC50 (CDK2/Cyclin E1) | pIC50 (Kuramochi cells RB-WT) |
| --- | --- | --- |
| CC(C)C(=O)N1CC2(CN(C(=O)c3cnn(Cc4ccc(F)cc4)c3)C[C@H]2COCc2cccc(C3CCC(F)(F)CC3)c2C(=O)O)C1 [I′-16, (S)-2-(4,4-difluorocyclohexyl)-6-(((6-(1-(4-fluorobenzyl)-1H-pyrazole-4-carbonyl)-2-isobutyryl-2,6-diazaspiro[3.4]octan-8-yl)methoxy)methyl)benzoic acid] | ≥ 6.30 | – |
| CC(C)(C(=O)N1CC2(CN(C(=O)c3cnn(Cc4ccc(F)cc4)c3)C[C@H]2COCc2ccccc2C(=O)O)C1)C(F)(F)F [I′-11] | < 5.00 | – |
| CC(C)(C(=O)N1CC2(C1)CN(c1cc(F)c(F)c3ncsc13)C[C@H]2COCc1c(F)ccc(C2CCC(F)(F)CC2)c1C(=O)O)C(F)(F)F [I′-14, (S)-2-(((6-(4,5-difluorobenzo[d]thiazol-7-yl)-2-(3,3,3-trifluoro-2,2-dimethylpropanoyl)-2,6-diazaspiro[3.4]octan-8-yl)methoxy)methyl)-6-(4,4-difluorocyclohexyl)-3-fluorobenzoic acid] | ≥ 6.30 | – |
| O=C(O)c1c(COC[C@@H]2CN(C(=O)c3cnn(Cc4ccc(F)cc4)c3)CC23CN(C(=O)C24CC(C2)C4)C3)cccc1C1CCC(F)(F)CC1 [I′-17, (S)-2-(((2-(bicyclo[11.1.1]pentane-1-carbonyl)-6-(1-(4-fluorobenzyl)-1H-pyrazole-4-carbonyl)-2,6-diazaspiro[3.4]octan-8-yl)methoxy)methyl)-6-(4,4-difluorocyclohexyl)benzoic acid] | ≥ 6.30 | – |
| O=C(O)c1c(COC[C@@H]2CN(C(=O)c3cnn(Cc4ccc(F)cc4)c3)CC23CN(C(=O)C2CCOCC2)C3)cccc1C1CCC(F)(F)CC1 [I′-15] | 5.30 to 6.30 | – |
| CN(C)CCNC(=O)c1c(COC[C@@H]2CN(C(=O)c3cnn(Cc4ccc(F)cc4)c3)CC23CN(C(=O)C(C)(C)C(F)(F)F)C3)cccc1C1CCC(F)(F)CC1 [I′-18] | ≥ 6.30 | – |
| CC(C)(C(=O)N1CC2(CN(C(=O)c3cnn(Cc4ccc(F)cc4)c3)C[C@H]2COCc2c(F)ccc(C3CCC(F)(F)CC3)c2C(=O)O)C1)C(F)(F)F [I′-13] | ≥ 6.30 | – |
| CC(C)(C(=O)N1CC2(CN(C(=O)c3cnn(Cc4ccc(F)cc4)c3)C[C@H]2COCc2cccc(C3=CCCC3)c2C(=O)O)C1)C(F)(F)F [I′-12] | ≥ 6.30 | – |

Further lines, with some results ahead:

| pIC50 (CDK2/Cyclin E1) | SMILES | pIC50 (Kuramochi cells RB-WT) |
| --- | --- | --- |
| < 5.00 | O=C(c1cnc(O)cn1)N1CC(CS(=O)(=O)Cc2cccc(-c3ccc(C(F)(F)F)cc3)n2)C2(C1)CN(C(=O)[C@H]1CC1(F)F)C2 (stereo partly drawn) [Compound I-3, (2-((R)-2,2-difluorocyclopropane-1-carbonyl)-8-((((6-(4-(trifluoromethyl)phenyl)pyridin-2-yl)methyl)sulfonyl)methyl)-2,6-diazaspiro[3.4]octan-6-yl)(5-hydroxypyrazin-2-yl)methanone] | < 5.00 |
| < 5.00 | O=C(O)C(=CC1CN(C(=O)c2cnc(O)cn2)CC12CN(C(=O)C1(C(F)(F)F)CC1)C2)Cc1cccc(-c2ccc(C(F)(F)F)cc2)n1 (stereo not shown) [Compound I-63, 3-(6-(5-hydroxypyrazine-2-carbonyl)-2-(1-(trifluoromethyl)cyclopropane-1-carbonyl)-2,6-diazaspiro[3.4]octan-8-yl)-2-((6-(4-(trifluoromethyl)phenyl)pyridin-2-yl)methyl)acrylic acid] | < 5.00 |
| < 5.00 | O=C(NS(=O)(=O)c1cccc(C2CCOCC2)c1)C1CN(c2cc(F)cc3ncsc23)CC12CN(C(=O)C1(C(F)(F)F)CC1)C2 (stereo not shown) [Compound I-53, 6-(5-fluorobenzo[d]thiazol-7-yl)-N-((3-(tetrahydro-2H-pyran-4-yl)phenyl)sulfonyl)-2-(1-(trifluoromethyl)cyclopropane-1-carbonyl)-2,6-diazaspiro[3.4]octane-8-carboxamide] | < 5.00 |
| < 5.00 | O=C(O)c1ccc(C2CCN(C(=O)COCC3CN(C(=O)c4cnn(Cc5ccccc5)c4)CC34CN(C(=O)C3(C(F)(F)F)CC3)C4)CC2)c(OC2CCCCC2)c1 (stereo not shown) [Compound I-60, 4-(1-(2-((6-(1-benzyl-1H-pyrazole-4-carbonyl)-2-(1-(trifluoromethyl)cyclopropane-1-carbonyl)-2,6-diazaspiro[3.4]octan-8-yl)methoxy)acetyl)piperidin-4-yl)-3-(cyclohexyloxy)benzoic acid] | < 5.00 |
| < 5.00 | O=C(NS(=O)(=O)c1cccc(C2CCOCC2)c1)[C@@H]1CN(C(=O)c2cnn(Cc3ccc(C(F)(F)F)cc3)c2)CC12CN(C(=O)C1(C(F)(F)F)CC1)C2 [Compound I-58, (S)—N-((3-(tetrahydro-2H-pyran-4-yl)phenyl)sulfonyl)-6-(1-(4-(trifluoromethyl)benzyl)-1H-pyrazole-4-carbonyl)-2-(1-(trifluoromethyl)cyclopropane-1-carbonyl)-2,6-diazaspiro[3.4]octane-8-carboxamide] | < 5.00 |
| 5.00 to 5.30 | O=C(NS(=O)(=O)c1cccc(C2CCCCC2)c1)C1CN(C(=O)c2cnn(Cc3ccccc3)c2)CC12CN(C(=O)[C@H]1CC1(F)F)C2 (stereo partly drawn) [Compound I-1, 6-(1-benzyl-1H-pyrazole-4-carbonyl)-N-((3-cyclohexylphenyl)sulfonyl)-2-((R)-2,2-difluorocyclopropane-1-carbonyl)-2,6-diazaspiro[3.4]octane-8-carboxamide] | < 5.00 |
| < 5.00 | COC(=O)c1c(O)cc(COCC2CN(C(=O)c3cnn(Cc4ccc(C(F)(F)F)cc4)c3)CC23CN(C(=O)C2(C(F)(F)F)CC2)C3)cc1-c1ccc(C(F)(F)F)cc1 (stereo not shown) [Compound I-55, methyl 3-hydroxy-4′-(trifluoromethyl)-5-(((6-(1-(4-(trifluoromethyl)benzyl)-1H-pyrazole-4-carbonyl)-2-(1-(trifluoromethyl)cyclopropane-1-carbonyl)-2,6-diazaspiro[3.4]octan-8-yl)methoxy)methyl)-[1,1′-biphenyl]-2-carboxylate] | 5.00 to 5.30 |
| < 5.00 | O=C(O)c1c(COCC2CN(c3cc(F)cc4ncsc34)CC23CN(C(=O)C2(C(F)(F)F)CC2)C3)cccc1C1CCC(C(F)(F)F)CC1 (stereo not shown) [Compound I-61, 2-(((6-(5-fluorobenzo[d]thiazol-7-yl)-2-(1-(trifluoromethyl)cyclopropane-1-carbonyl)-2,6-diazaspiro[3.4]octan-8-yl)methoxy)methyl)-6-(4-(trifluoromethyl)cyclohexyl)benzoic acid] | < 5.00 |
| 5.00 to 5.30 | CC1(C)C[C@@H]1C(=O)N1CC2(CN(C(=O)c3cncs3)CC2COCC(=O)N2CCC(c3ccc(C(=O)O)cc3OC3CCCCC3)CC2)C1 (stereo partly drawn) [Compound I-56, 3-(cyclohexyloxy)-4-(1-(2-((2-((S)-2,2-dimethylcyclopropane-1-carbonyl)-6-(thiazole-5-carbonyl)-2,6-diazaspiro[3.4]octan-8-yl)methoxy)acetyl)piperidin-4-yl)benzoic acid] | < 5.00 |
| 5.00 to 5.30 | O=C(O)c1c(COCC2CN(C(=O)c3cnn(Cc4ccc(C(F)(F)F)cc4)c3)CC23CN(C(=O)C2(C(F)(F)F)CC2)C3)cccc1C1CCC(C(F)(F)F)CC1 (stereo not shown) [Compound I-52, 2-(((6-(1-(4-(trifluoromethyl)benzyl)-1H-pyrazole-4-carbonyl)-2-(1-(trifluoromethyl)cyclopropane-1-carbonyl)-2,6-diazaspiro[3.4]octan-8-yl)methoxy)methyl)-6-(4-(trifluoromethyl)cyclohexyl)benzoic acid] | < 5.00 |
| ≥ 6.30 | CC1(C)C[C@@H]1C(=O)N1CC2(CN(C(=O)c3cnn(Cc4ccccc4C(=O)O)c3)C[C@H]2COCc2cccc(C3CCC(C(F)(F)F)CC3)n2)C1 (stereo partly drawn) [Compound I-54, 2-((4-((S)-2-((S)-2,2-dimethylcyclopropane-1-carbonyl)-8-(((6-(4-(trifluoromethyl)cyclohexyl)pyridin-2-yl)methoxy)methyl)-2,6-diazaspiro[3.4]octane-6-carbonyl)-1H-pyrazol-1-yl)methyl)benzoic acid] | < 5.00 |
| < 5.00 | N#Cc1ccc(Cn2cc(C(=O)N3CC(C(=O)NS(=O)(=O)c4cccc(C5(C(F)(F)F)CC5)c4)C4(C3)CN(C(=O)C3(C(F)(F)F)CC3)C4)cn2)cc1 (stereo not shown) [Compound I-59, 6-(1-(4-cyanobenzyl)-1H-pyrazole-4-carbonyl)-2-(1-(trifluoromethyl)cyclopropane-1-carbonyl)-N-((3-(1-(trifluoromethyl)cyclopropyl)phenyl)sulfonyl)-2,6-diazaspiro[3.4]octane-8-carboxamide] | < 5.00 |
| ≥ 6.30 | O=C(O)c1c(COC[C@@H]2CN(C(=O)c3cnn(Cc4ccc(F)cc4)c3)CC23CN(C(=O)C2(C(F)(F)F)CC2)C3)cccc1C1CCC(F)(F)CC1 [Compound I-51, (S)-2-(4,4-difluorocyclohexyl)-6-(((6-(1-(4-fluorobenzyl)-1H-pyrazole-4-carbonyl)-2-(1-(trifluoromethyl)cyclopropanecarbonyl)-2,6-diazaspiro[3.4]octan-8-yl)methoxy)methyl) benzoic acid] | 5.00 to 5.30 |

From patent US20260034123A1 (Cedilla Therapeutics, Inc., priority 2022, published 2026)
